Common to all, as to format: in vivo, mouse
Test [1] deals with AAC model of heart failure. Kind of test: Cardiac blood vessel density (CD31 immunostaining) in AAC model. The settings on record: ldCil for 3 weeks. The source says:
(§1) Male C57BL6 mice (Charles River) underwent AAC surgery at 4-5 weeks of age (between 20 and 22 g). Mice were anaesthetised with isoflurane, placed in a supine position on the procedure table, and an incision made along the ventral underbelly, extending from the xiphoid process of the sternum, down to the groin to reveal the abdominal muscle. The abdominal muscle was then cut the same distance along the linea alba to allow easy reattachment of the two halves. The two sides of the abdominal muscles were clipped back to reveal the abdominal gastrointestinal organs, and these were carefully manoeuvred to expose the underlying abdominal aorta. […] Hearts were halved longitudinally and either snap frozen in liquid nitrogen (for immunohistochemistry) or stored in an RNA later stabilisation solution (for RT-quantitative PCR) (ThermoFisher Scientific, Hertfordshire, UK).
For anti-CD31 (BD Bioscience) detection, 5 μm snap-frozen sections were blocked in 5% normal goat serum in PBS for 1 h, followed by incubation with anti-CD31 primary antibody (clone H-3, sc-376764, Santa Cruz, 1:100) in blocking buffer (5% normal goat serum in PBS) for 2 h at room temperature. […] To quantify cardiac blood vessel density, the number of CD31-positive blood vessels present across an entire area of abdominally-orientated cardiac tissue was counted within a field of view taken at 40× magnification. […]

In test [2] the test system is AAC model of heart failure. Put plainly: Abdominal aortic constriction (AAC) pressure overload heart failure model, echocardiography. To be noted: for fractional shortening (FS %): prevention mode. The text has this:
Abdominal AAC, a common experimental procedure, was used to elicit pressure overload-induced heart failure in murine models. AAC provides a time-dependent, reproducible model of HF characterised by a significant rise in left ventricular weight, deleterious myocardial dilation, and a reduction in cardiac inotropy, and rise in myocardial fibrosis. Physiologically this mimics some of the clinical features of human aortic stenosis.
Male C57BL6 mice (Charles River) underwent AAC surgery at 4-5 weeks of age (between 20 and 22 g). Mice were anaesthetised with isoflurane, placed in a supine position on the procedure table, and an incision made along the ventral underbelly, extending from the xiphoid process of the sternum, down to the groin to reveal the abdominal muscle. The abdominal muscle was then cut the same distance along the linea alba to allow easy reattachment of the two halves. The two sides of the abdominal muscles were clipped back to reveal the abdominal gastrointestinal organs, and these were carefully manoeuvred to expose the underlying abdominal aorta. The aorta was cleaned of visceral fats, and carefully separated from parallel vasculature, whilst avoiding any spinal nerves. The abdominal aorta was then constricted using a 6-0 silk suture tied to the width of a 27-gauge needle at a position rostral to the renal artery bifurcation. Great care was taken to ensure the knot remained taut after tying. This was to ensure minimal variability amongst aortic lumen occlusion between animals, and therefore minimise differences in the degree of aortic stenosis. The skin and abdominal muscles were closed with a 6-0 silk suture thread. SHAM operated mice underwent the same operation with the exception of aortic constriction. In an effort to ensure reproducibility amongst AAC surgeries only male mice weighing between 20 and 22 g (correlating to 4-5 weeks of age) were used. Echocardiography was performed up to 3 days prior to surgery, 3 weeks following surgery, and then at 6 (and/or 12 weeks) following surgery. At the experimental end-point, mice were sacrificed and their lungs, kidneys and hearts excised. Hearts were halved longitudinally and either snap frozen in liquid nitrogen (for immunohistochemistry) or stored in an RNA later stabilisation solution (for RT-quantitative PCR) (ThermoFisher Scientific, Hertfordshire, UK).
Cilengitide (Bachem) was stored as a […] solution in saline at −20° C. prior to use, before thawing and serial diluting to an appropriate concentration with sterile saline for use. Injections were administered 3 times per week at the indicated doses intraperitoneally (IP). Low dose Cilengitide (ldCil) is classified as 50 μg/kg (27).
Cardiac function was assessed by transthoracic echocardiography using a VisualSonics Vevo 770 30-MHz transduction probe. Mice were anaesthetised with isoflurane (1.5% in O2), hair removed from their chest with hair removal cream, and then were placed in a supine position onto a warmed pad (46° C.). The chest was covered in ultrasound gel, and the transduction probe was positioned adjacent to the mitral valve, at the tips of the papillary muscles, and images were taken just below this to ensure positional reproducibility. LV internal diameter (LVID) and LV posterior wall thicknesses at diastole (d) and systole (s) were measured from short-axis M-mode images. LV ejection fraction (EF %) was calculated as follows: LVEF %=[(LVIDd)^3−(LVIDs)^3]/(LVIDd)^3×100; LV fractional shortening (FS %) was calculated as follows: LVFS %=(LVIDd−LVIDs)/LVIDd×100. Values were averaged across three beats. All efforts were made to ensure consistency between mouse echocardiographs, including: pad temperature to be maintained at 46° C., isoflurane anaesthesia at 1.5%, oxygen flow at 1.5 L/M, and cardiac function to be measured in the same anatomical location throughout.

The test system of a further test is Myh7. Put plainly: Myh7 transcript expression by RT-qPCR, whole heart preparations. The settings on record: FIG. 10: whole heart, AAC surgery, ldCil 3 weeks after surgery, normalised to Gapdh.
Excerpt: as §1, with “aorta. The aorta was cleaned of visceral fats, and carefully separated from parallel vasculature, whilst avoiding any spinal nerves.” for “aorta.”, “UK). […]” for “UK).”
Complementary DNA (cDNA) synthesis was carried out using the Applied Biosystems High Capacity cDNA Reverse Transcription (RT) Kit on a thermal cycler as per the manufacturer's instructions. cDNA was made up to a total quantity of either 600 (most mouse tissue and/or cells), or 1000 ng (human heart tissue). […]

[3] abbreviates: intervention mode, AAC surgery, ldCil 50 μg/kg 3 times a week from 3-6 weeks post-surgery.

As to `CC(C)[C@H]1C(=O)N[C@@H](CCCN=C(N)N)C(=O)NCC(=O)N[C@@H](CC(=O)O)C(=O)N[C@H](Cc2ccccc2)C(=O)N1C` [Cilengitide, c(f*VRGD)], the “cardiac blood vessel density” value in test [1] (AAC surgery) is listed as “significantly enhanced”; in test [1] (SHAM surgery) it was “no significant effect”. In addition, the “fractional shortening over time” value in test [2] (AAC surgery, ldCil 3-6 weeks post-surgery, between 3 and 6 weeks) is on record as “elevated fractional shortening significantly”. The “persistence of fractional shortening rescue after treatment cessation” value in test [2] (AAC surgery, ldCil 3-6 weeks post-surgery, followed to 12 weeks) is recorded as “sustained up until 12 weeks post-surgery”. Further, in test [2] (SHAM surgery, ldCil 3-6 weeks post-surgery, between 3 and 6 weeks or 6 and 12 weeks), the “FS % over time” value is “not significantly altered”. Further, the “endpoint FS %” value in test [2] (setting [3]) is reported as “rescued”. In addition, in test [2] (setting [3]), the “endpoint ejection fraction (EF %)” value is “rescued”. In addition, the “endpoint left ventricular internal diameter during systole (LVID)” value in test [2] (setting [3]) is “rescued”. For the same molecule, the “fractional shortening (FS %)” value in test [2] (AAC surgery, 50 μg/kg IP 3 times a week for 7 weeks immediately after surgery, endpoint 7 weeks) was “restored fractional shortening to that observed in SHAM treated mice”; in test [2] (AAC surgery, 500 μg/kg IP 3 times a week for 7 weeks), “but not 500 μg/kg, Cilengitide corrects the fractional shortening effects”; in test [2] (SHAM surgery, 50 μg/kg IP 3 times a week for 7 weeks) it was “no significant effect”. Moreover, the Myh7 levels result in the test with Myh7 is “restored Myh7 levels back to untreated levels”.
